Laboratory results taken from PMC9783227, “New Derivatives of the Multi-Stage Active Malaria Box Compound MMV030666 and Their Antiplasmodial Potencies” (Pharmaceuticals, 2022).
Read-outs that look alike come from different tables or passages of the source.

What was measured:
[1] = tested on: P. falciparum NF54; experiment: In vitro microplate assay against P. falciparum NF54 (3H-hypoxanthine incorporation); format: cell-based, Plasmodium falciparum; conditions: for S.I. = IC50 (Cyt.)/IC50 (PfNF54): L-6 cells IC50 / PfNF54 IC50; for IC50: average of four determinations, read-out: PfNF54 IC50
Experimental: (§1) All newly prepared compounds were tested for their in vitro activity against the chloroquine sensitive strain NF54 of P. falciparum. Cytotoxicity was determined using L-6 cells (rat skeletal myofibroblasts). Chloroquine and podophyllotoxin were used as standards.
The in vitro activity of compounds against erythrocytic stages of the drug sensitive NF54 strain of P. falciparum […] was determined using a ^3H-hypoxanthine incorporation assay. Compounds were dissolved in DMSO at 10 mg/mL and further diluted in medium before adding to parasite cultures that were incubated in RPMI 1640 medium without hypoxanthine, supplemented with HEPES (5.94 g/L), NaHCO3 (2.1 g/L), neomycin (100 U/mL), AlbumaxR (5 g/L) and washed human red blood cells A+ at 2.5% haematocrit (0.3% parasitaemia). Serial drug dilutions of eleven 3-fold dilutions steps covering a range from 100 to 0.002 µg/mL were prepared. The 96-well plates were incubated in a humidified atmosphere at 37 °C; 4% CO2, 3% O2, 93% N2. After 48 h of incubation time, 0.05 mL of ^3H-hypoxanthine (=0.5 µCi) was added to each well of the plate. The plates were incubated for further 24 h under the same conditions. Plates were then harvested using a Betaplate^TM cell harvester (Wallac, Zurich, Switzerland). Red blood cells were transferred onto a glass fiber filter and then washed with distilled water. The dried filters were inserted into a plastic foil with 10 mL of scintillation fluid and counted in a Betaplate^TM liquid scintillation counter (Wallac, Zurich, Switzerland). IC50 values were calculated from sigmoidal inhibition curves by linear regression using Microsoft Excel. Chloroquine (Sigma C6628) was used as control.

[2] = Parallel artificial membrane permeability assay (PAMPA); conditions: for Papp at 5 h, 200 µM: pH 7.4, Pe
Experimental: The parallel artificial membrane permeability assay (PAMPA) is a fast and easy high-throughput assay to determine passive permeability of compounds through semi-permeable membranes (for example the blood-brain-barrier) without the influence of efflux pumps or transporter molecules.
With the high-throughput PAMPA the newly synthesized compounds were tested for their passive permeability through cell membranes without the influence of efflux pumps or transporter proteins. The assay was performed using a Corning® Gentest^TM Pre-coated PAMPA Plate System with 96-well polystyrene plates. The bottom of the acceptor plate consists of a porous membrane, whereby the pores are lined with a lipid-oil-lipid triple layer. Stock solutions of each test compound at 10 mM were prepared in DMSO or methanol and diluted with phosphate-buffered saline (PBS at a pH of 7.4) to a final concentration of 200 µM. […] The donor plate (bottom plate) was filled with the compound solutions, whereby all compounds were tested in quadruplicates. Each well of the acceptor plate (top plate) was filled with PBS buffer. Donor and acceptor plates were combined and incubated at room temperature for 5 h. After that, the plates were separated and 150 µL of each well of both plates were transferred to 96-well UV plates (Greiner Bio-One). Absorption at different wavelengths covering a range from 200 to 300 nm was measured using a SpectraMax M3 UV plate reader. […] The plates were analyzed at the wavelength where the R^2 value of the calibration curve was higher than 0.99 [41]. […] (2) cequ=[cD(t)∗VD+cA(t)∗VA]/(VD+VA) where: • VD—donor well volume (0.3 mL); • VA—acceptor well volume (0.2 mL); • cA(t)—acceptor well compound concentration at time t; • cD(t)—donor well compound concentration at time t.
Recovery of compounds from donor and acceptor wells (mass retention) was calculated as shown in the equation below. Data were only accepted when recovery exceeded 70%. (3) R=1−[cD(t)∗VD+cA(t)∗VA]/(c0∗VD) where: • R—mass retention (%); • VD—donor well volume (0.3 mL); • VA—acceptor well volume (0.2 mL); • cA(t)—acceptor well compound concentration at time t; • cD(t)—donor well compound concentration at time t; • c0—initial donor well compound concentration (200 µM).

[3] = in vitro; conditions: rat
Experimental: as §1
The cytotoxicity assays were performed using 96-well microtiter plates, each well containing 4000 L-6 cells (a primary cell line derived from rat skeletal myofibroblasts, ATCC CRL-1458^TM) in 0.1 mL of RPMI 1640 medium supplemented with 1% glutamine (200 mM) and 10% fetal bovine serum. Serial drug dilutions of eleven 3-fold dilution steps covering a range from 100 to 0.002 µg/mL were prepared. After 70 h of incubation, the plates were inspected under an inverted microscope to assure growth of the controls and sterile conditions. Then, 0.01 mL resazurin solution (resazurin, 12.5 mg in 100 mL double-distilled water) was added to each well and the plates were incubated for another 2 h. The plates were read with a Spectramax Gemini XS microplate fluorometer (Molecular Devices Cooperation, Sunnyvale, CA, USA) using an excitation wavelength of 536 nm and an emission wavelength of 588 nm. IC50 values were calculated by linear regression from the sigmoidal dose inhibition curves using SoftmaxPro software (Molecular Devices Cooperation, Sunnyvale, CA, USA). Podophyllotoxin (Sigma P4405) was used as control.

[4] = PAMPA, PBS pH 7.4, 200 µM, 5 h, room temperature
[5] = Plasmodium falciparum, NF54, chloroquine sensitive strain NF54, erythrocytic stages
[6] = chloroquine sensitive strain NF54, erythrocytic stages

Row | S.I. = IC50 (Cyt.)/IC50 (PfNF54) [1] | Pe [2, 4] | IC50 [1, 5] | Papp at 5 h, 200 µM [2, 4] | IC50 at 72 h [3] | IC50 [1, 6] | Compound | Pe ([2]; PAMPA standards)
1 | 9672 | – | – | – | – | – | CCN(CC)CCCC(C)Nc1ccnc2cc(Cl)ccc12 (stereo not drawn) [CQ, chloroquine, reference compound] | –
2 | – | – | 0.591 µM | 1.68 ×10⁻⁶ cm/s | 90.4 µM | – | CC(C)(C)OC(=O)N1CCN(c2ccccc2NC(=O)c2cccc([N+](=O)[O-])c2Oc2ccc(F)cc2)CC1 [Compound 28, tert-Butyl 4-{2-[2-(4-fluorophenoxy)-3-nitrobenzamido]phenyl}piperazine-1-carboxylate] | –
3 | 850.5 | 3.77 10^−6 cm/s | 0.195 µM | 4.31 ×10⁻⁶ cm/s | 166 µM | – | CC(C)(C)OC(=O)N1CCN(c2ccccc2NC(=O)c2cccc(C(F)(F)F)c2Sc2ccc(F)cc2)CC1 [Compound 29, tert-Butyl 4-(2-{2-[(4-fluorophenyl)sulfanyl]-3-(trifluoromethyl)benz-amido}phenyl) piperazine-1-carboxylate] | –
4 | 19.87 | – | 1.13 µM | 8.52 ×10⁻⁶ cm/s | 22.5 µM | – | CC(C)(C)OC(=O)N1CCN(c2ccccc2NC(=O)c2ccccc2Oc2ccccc2)CC1 [Compound 30, tert-Butyl 4-[2-(2-phenoxybenzamido)phenyl]piperazin-1-carboxylate] | –
5 | – | – | 0.614 to 0.636 µM | 0.65 ×10⁻⁶ cm/s | 129 µM | 0.614 µM | CC(C)(C)OC(=O)N1CCN(c2ccccc2NC(=O)c2cccc(C(F)(F)F)c2Nc2ccccc2)CC1 [Compound 31, tert-Butyl 4-{2-[2-anilino-3-(trifluoromethyl)benzamido]phenyl}piperazin-1-carboxylate] | –
6 | – | – | 0.614 to 0.636 µM | 0.57 ×10⁻⁶ cm/s | 123 µM | 0.636 µM | CC(C)(C)OC(=O)N1CCN(c2ccccc2NC(=O)c2cccc(C(F)(F)F)c2Nc2ccc(F)cc2)CC1 [Compound 32, tert-Butyl 4-{2-[2-(4-fluoroanilino)-3-(trifluoromethyl)benzamido]phenyl}piperazin-1-carboxylate] | –
7 | – | – | 2.61 µM | 6.92 ×10⁻⁶ cm/s | 114 µM | – | CC(C)(C)C(=O)N1CCN(c2ccccc2NC(=O)c2cccc([N+](=O)[O-])c2Oc2ccc(F)cc2)CC1 [Compound 34, N-{2-[4-(2,2-Dimethylpropanoyl)piperazin-1-yl]phenyl}-2-(4-fluorophenoxy)-3-nitrobenzamid] | –
8 | – | 0.00 10^−6 cm/s | 2.14 µM | – | 15.6 µM | – | CC(C)(C)C(=O)N1CCN(c2ccccc2NC(=O)c2cccc(F)c2Oc2ccc(F)cc2)CC1 [Compound 35, N-{2-[4-(2,2-Dimethylpropanoyl)piperazin-1-yl]phenyl}-3-fluoro-2-(4-fluorophenoxy)benzamid] | –
9 | – | – | 3.4 µM | 2.84 ×10⁻⁶ cm/s | 203 µM | – | CC(C)(C)OC(=O)N1CCN(c2ccc(NC(=O)c3ccccc3Oc3ccc(F)cc3)cc2)CC1 [Compound 36, tert-Butyl 4-{4-[2-(4-fluorophenoxy)benzamido]phenyl}piperazine-1-carboxylate] | –
10 | – | – | 4.07 µM | 0.7 ×10⁻⁶ cm/s | 35.3 µM | – | CC(C)(C)OC(=O)N1CCN(c2ccc(NC(=O)c3cccc(F)c3Oc3ccc(F)cc3)cc2)CC1 [Compound 37, tert-Butyl 4-{4-[3-fluoro-2-(4-fluorophenoxy)benzamido]phenyl}piperazine-1-carb-oxylate] | –
11 | – | – | 1.43 µM | 1.53 ×10⁻⁶ cm/s | 70.8 µM | – | CC(C)(C)OC(=O)N1CCN(c2ccc(NC(=O)c3cccc([N+](=O)[O-])c3Oc3ccc(F)cc3)cc2)CC1 [Compound 38, tert-Butyl 4-{4-[2-(4-fluorophenoxy)-3-nitrobenzamido]phenyl}piperazine-1-carb-oxylate] | –
12 | 212.8 | 4.31 10^−6 cm/s | 0.149 µM | 3.77 ×10⁻⁶ cm/s | 31.8 µM | – | CC(C)(C)OC(=O)N1CCN(c2ccc(NC(=O)c3cccc(C(F)(F)F)c3Sc3ccc(F)cc3)cc2)CC1 [Compound 39, tert-Butyl 4-(4-{2-[(4-fluorophenyl)sulfanyl]-3-(trifluoromethyl)benzamido}phenyl) piperazine-1-carboxylate] | –
13 | 31.78 | – | 3.09 µM | 5.57 ×10⁻⁶ cm/s | 98.3 µM | – | CC(C)(C)OC(=O)N1CCN(c2ccc(NC(=O)c3ccccc3Oc3ccccc3)cc2)CC1 [Compound 40, tert-Butyl 4-[4-(2-phenoxybenzamido)phenyl]piperazin-1-carboxylate] | –
14 | – | – | 0.539 to 0.634 µM | 1.32 ×10⁻⁶ cm/s | 33.8 µM | 0.634 µM | CC(C)(C)OC(=O)N1CCN(c2ccc(NC(=O)c3cccc(C(F)(F)F)c3Nc3ccccc3)cc2)CC1 [Compound 41, tert-Butyl 4-{4-[2-anilino-3-(trifluoromethyl)benzamido]phenyl}piperazin-1-carboxylate] | –
15 | – | – | 0.539 to 0.634 µM | 0.2 ×10⁻⁶ cm/s | 94.2 µM | 0.539 µM | CC(C)(C)OC(=O)N1CCN(c2ccc(NC(=O)c3cccc(C(F)(F)F)c3Nc3ccc(F)cc3)cc2)CC1 [Compound 42] | –
16 | – | – | 5.62 µM | 0.02 ×10⁻⁶ cm/s | 184 µM | – | CC(C)(C)C(=O)N1CCN(c2ccc(NC(=O)c3ccccc3Oc3ccc(F)cc3)cc2)CC1 [Compound 43, N-{4-[4-(2,2-Dimethylpropanoyl)piperazin-1-yl]phenyl}-2-(4-fluorophenoxy)benzamid] | –
17 | – | – | 1.79 µM | 5.13 ×10⁻⁶ cm/s | 109 µM | – | CC(C)(C)C(=O)N1CCN(c2ccc(NC(=O)c3cccc(F)c3Oc3ccc(F)cc3)cc2)CC1 [Compound 45, N-{4-[4-(2,2-Dimethylpropanoyl)piperazin-1-yl]phenyl}-3-fluoro-2-(4-fluorophenoxy)benzamid] | –
18 | 126.0 | – | 1.01 µM | 1.44 ×10⁻⁶ cm/s | 127 µM | – | CC(C)(C)OC(=O)N1CCN(c2ccccc2NC(=O)c2cccc(N)c2Oc2ccc(F)cc2)CC1 [Compound 46, tert-Butyl 4-{2-[3-amino-2-(4-fluorophenoxy)benzamido]phenyl}piperazine-1-carboxylate] | –
19 | – | – | – | – | – | – | NS(=O)(=O)c1cc2c(cc1Cl)NCNS2(=O)=O [Hydrochlorothiazide, reference compound] | 0.9 nm/s

Row | Compound | S.I. = IC50 (Cyt.)/IC50 (PfNF54) [1] | Pe [2, 4] | IC50 [1, 5] | Papp at 5 h, 200 µM [2, 4] | IC50 at 72 h [3] | IC50 [1, 6] | Pe ([2]; PAMPA standards)
20 | Cn1c(=O)c2c(ncn2C)n(C)c1=O [Caffeine, reference compound] | – | 8.00 10^−6 cm/s | – | – | – | – | 80 nm/s
